From US20050106243A1, “Process for the preparation of free-flowing, pulverized atorvastatin adsorbates” (priority 2003, published 2005)

Test: Impurity profile (sum of all impurities, HPLC) at start and after storage
Type: physicochemical
Protocol: All HPLC measurements were performed with an […].
Impurity profile: Sum of all the impurities: HPLC, in %: […]

## CC(C)c1c(C(=O)Nc2ccccc2)c(-c2ccccc2)c(-c2ccc(F)cc2)n1CC[C@@H](O)C[C@@H](O)CC(=O)[O-].CC(C)c1c(C(=O)Nc2ccccc2)c(-c2ccccc2)c(-c2ccc(F)cc2)n1CC[C@@H](O)C[C@@H](O)CC(=O)[O-].[Ca+2] (relative stereo) [amorphous atorvastatin calcium, calcium salt of [R-(R*,R*)]-2-(4-fluorophenyl)-β,δ-dihydroxy-5-(1-methylethyl)-3-phenylphenylamino)carbonyl]-1H-pyrrol-1-heptanoic acid]
15 days (70° C./75% relative humidity)
  Sum of all the impurities, HPLC: 1.92%
Start
  Sum of all the impurities, HPLC: 1.07%
